Read-outs that look alike come from different tables or passages of the source.
Biological target: cellular cereblon (CRBN) (Homo sapiens, UniProt Q96SW2)
Assay: NanoBRET Target Engagement Assay, competition with pomalidomide tracer in 293T.116 cells
Details: for NanoBRET TE 293T.116 CRBN 6 hours IP nM / NanoBRET TE 293T.116 CRBN 24 hours IP nM / IC50 / NanoBRET TE 293T.116 CRBN 2 hours IP nM: 293T.116 cells
[1] = NanoBRET TE 293T.116 CRBN 6 hours IC50 nM, 6 hours incubation
[2] = NanoBRET TE 293T.116 CRBN 24 hours IC50 nM, 24 hours incubation
[3] = read-out: NanoBRET TE 293T.116 CRBN 6 hours Emax
[4] = read-out: NanoBRET TE 293T.116 CRBN 24 hours Emax
[5] = NanoBRET TE 293T.116 CRBN 2 hours IC50 nM, 2 hours incubation
[6] = read-out: NanoBRET TE 293T.116 CRBN 2 hours Emax

SMILES | NanoBRET TE 293T.116 CRBN 6 hours IP nM (6 hours incubation) | NanoBRET TE 293T.116 CRBN 24 hours IP nM (24 hours incubation) | IC50 [1] [nM] | IC50 [2] [nM] | Emax [3] [%] | Emax [4] [%] | NanoBRET TE 293T.116 CRBN 2 hours IP nM (2 hours incubation) | IC50 [5] [nM] | Emax [6] [%]
O=C1CCC(Oc2ccc(S(=O)(=O)F)cn2)C(=O)N1 (stereo not drawn) [Compound A-9, 6-((2,6-dioxopiperidin-3-yl)oxy)pyridine-3-sulfonyl fluoride] | ** (<10 μM and >1 μM is **) | * (>=10 μM is *) | 1000 to 10000 | > 10000 | < 50 | 50 to 80 | – | – | –
O=C1NC(=O)C2(c3ccc(S(=O)(=O)F)cc3)CC1C2 [Compound A-34, 4-(2,4-dioxo-3-azabicyclo[3.1.1]heptan-1-yl)benzenesulfonyl fluoride] | ** (<10 μM and >1 μM is **) | * (>=10 μM is *) | 1000 to 10000 | > 10000 | < 50 | > 80 | ** (<10 μM and >1 μM is **) | 1000 to 10000 | < 50
O=C1CCC(c2ccc(S(=O)(=O)F)cc2)C(=O)N1 (stereo not drawn) [Compound A-12, 4-(2,6-dioxopiperidin-3-yl)benzenesulfonyl fluoride] | *** (<= 1 μM is ***) | *** (<= 1 μM is ***) | < 1000 | 1000 to 10000 | < 50 | < 50 | *** (<= 1 μM is ***) | < 1000 | < 50
O=C1CCN(c2ccc(N3CCNCC3)c(OS(=O)(=O)F)c2)C(=O)N1 [drawing 1166] | – | ** (<10 μM and >1 μM is **) | – | 1000 to 10000 | – | < 50 | – | – | –
O=C1CCC(n2c(=O)oc3c(S(=O)(=O)F)cccc32)C(=O)N1 (stereo not drawn) [Compound A-29, 3-(2,6-dioxopiperidin-3-yl)-2-oxo-2,3-dihydrobenzo[d]oxazole-7-sulfonyl fluoride] | *** (<= 1 μM is ***) | ** (<10 μM and >1 μM is **) | < 1000 | 1000 to 10000 | < 50 | < 50 | – | – | –
Cn1nc(N2CCC(=O)NC2=O)c2cccc(OS(=O)(=O)F)c21 [Compound A-30, 3-(2,4-dioxotetrahydropyrimidin-1(2H)-yl)-1-methyl-1H-indazol-7-yl sulfurofluoridate] | *** (<= 1 μM is ***) | ** (<10 μM and >1 μM is **) | < 1000 | 1000 to 10000 | < 50 | < 50 | ** (<10 μM and >1 μM is **) | 1000 to 10000 | < 50
Cc1ccc(OC2CCC(=O)NC2=O)cc1OS(=O)(=O)F (stereo not drawn) [Compound A-19, 5-((2,6-dioxopiperidin-3-yl)oxy)-2-methylphenyl sulfurofluoridate] | ** (<10 μM and >1 μM is **) | ** (<10 μM and >1 μM is **) | 1000 to 10000 | 1000 to 10000 | < 50 | < 50 | ** (<10 μM and >1 μM is **) | 1000 to 10000 | < 50
Cn1nc(N2CCC(=O)NC2=O)c2cccc(S(=O)(=O)F)c21 [Compound A-10, 3-(2,4-dioxotetrahydropyrimidin-1(2H)-yl)-1-methyl-1H-indazole-7-sulfonyl fluoride] | *** (<= 1 μM is ***) | *** (<= 1 μM is ***) | < 1000 | < 1000 | < 50 | < 50 | *** (<= 1 μM is ***) | < 1000 | < 50
O=C1CCC(Nc2ccc(C3CCNCC3)c(OS(=O)(=O)F)c2)C(=O)N1 (stereo not drawn) [Compound A-31, 5-((2,6-dioxopiperidin-3-yl)amino)-2-(piperidin-4-yl)phenyl sulfurofluoridate] | *** (<= 1 μM is ***) | *** (<= 1 μM is ***) | < 1000 | < 1000 | < 50 | < 50 | *** (<= 1 μM is ***) | < 1000 | < 50
Cc1cc(OC2CCC(=O)NC2=O)cc(OS(=O)(=O)F)c1 (stereo not drawn) [Compound A-20, 3-((2,6-dioxopiperidin-3-yl)oxy)-5-methylphenyl sulfurofluoridate] | *** (<= 1 μM is ***) | *** (<= 1 μM is ***) | < 1000 | 1000 to 10000 | < 50 | < 50 | – | – | –
O=C1CCN(c2ccc(N3CCNCC3)c(OS(=O)(=O)F)c2)C(=O)N1 [drawing 1142] | * (>=10 μM is *) | – | 1000 to 10000 | – | < 50 | – | – | – | –
O=C1CCN(c2ccc(N3CCNCC3)c(OS(=O)(=O)F)c2)C(=O)N1 [Compound A-39, 5-(2,4-dioxotetrahydropyrimidin-1(2H)-yl)-2-(piperazin-1-yl)phenyl sulfurofluoridate] | – | – | – | – | – | – | * (>=10 μM is *) | > 10000 | 50 to 80
COc1ccc(OC2CCC(=O)NC2=O)cc1OS(=O)(=O)F (stereo not drawn) [Compound A-27, 5-((2,6-dioxopiperidin-3-yl)oxy)-2-methoxyphenyl sulfurofluoridate] | ** (<10 μM and >1 μM is **) | ** (<10 μM and >1 μM is **) | 1000 to 10000 | > 10000 | < 50 | 50 to 80 | ** (<10 μM and >1 μM is **) | 1000 to 10000 | < 50
O=C1CCC(c2ccc(OS(=O)(=O)F)cc2)C(=O)N1 (stereo not drawn) [Compound A-25, 4-(2,6-dioxopiperidin-3-yl)phenyl sulfurofluoridate] | *** (<= 1 μM is ***) | *** (<= 1 μM is ***) | < 1000 | < 1000 | < 50 | < 50 | – | – | –
O=C1CCC(CNc2cccc(OS(=O)(=O)F)c2)C(=O)N1 (stereo not drawn) [Compound A-40, 3-(((2,6-dioxopiperidin-3-yl)methyl)amino)phenyl sulfurofluoridate] | * (>=10 μM is *) | ** (<10 μM and >1 μM is **) | 1000 to 10000 | 1000 to 10000 | < 50 | < 50 | * (>=10 μM is *) | > 10000 | 50 to 80
CN(c1cccc(OS(=O)(=O)F)c1)C1CCC(=O)NC1=O (stereo not drawn) [Compound A-18, 3-((2,6-dioxopiperidin-3-yl)(methyl)amino)phenyl sulfurofluoridate] | * (>=10 μM is *) | ** (<10 μM and >1 μM is **) | 1000 to 10000 | 1000 to 10000 | < 50 | < 50 | ** (<10 μM and >1 μM is **) | 1000 to 10000 | < 50

From US20260274856A1, “COVALENT CEREBLON LIGANDS” (C4 THERAPEUTICS, INC., priority 2023, published 2026)
